Reference: patent publication US4732916A, “Novel guanidinomethylbenzoic acid derivatives” (Kabushiki Kaisha Med-Creat, priority 1985, dated 1988)

Tests used:
Format in all cases: in vivo
ethanol induced ulcer = assay: Test Method 2: Effect on Ethanol Induced Ulcer; conditions: Rattus norvegicus; SD male rats, oral, 30 minutes before oral ethanol (99.5%, 1 ml); stomachs removed one hour later
Method: 1. Test Procedures The method of Robert (Gastroenterology, 77, 433 (1979)) was followed. SD male rats each weighing from 180 to 200 g (8 weeks of age and 6 to 8 rats in one group) were fasted for 24 hours, followed by oral administration of the test compounds which had been suspended in 1% CMC aqueous solution. After lapse of 30 minutes, 1 ml of ethanol (99.5%) was orally administered. One hour later, the animals were killed under etherization to remove the stomachs. Each of the stomachs was injected with 12 ml of 1% formalin aqueous solution and then immersed in 1% formalin aqueous solution for 15 minutes. The ulcer factor and ulcer inhibition rate were determined in a manner similar to Test Method 1. The ED50 values were obtained from the doses-ulcer inhibition rates curve.

ddY male mice = assay: Test Method 4: Acute Toxicity-Minimum Lethal Dose (MLD); conditions: oral, observation over 7 days
Text: ddY Male mice each weighing from 20 to 22 g (4 weeks of age and 5 mice in one group) were fasted overnight, followed by oral administration of the test compounds which had been suspended in 1% CMC aqueous solution. Observation was made as to the death of the animals over 7 days to thereby determine the minimum lethal doses (MLD).

stress induced ulcer = assay: Test Method 1: Effect on Stress Induced Ulcer; conditions: Rattus norvegicus; SD male rats, oral, 15 minutes before restraint and water immersion (24° C., 18 hours); from doses-ulcer inhibition rates curve
Method: 1. Test Procedures The method of Takagi et al (Jap. J. Pharmacol., 18, 9 (1968)) was followed. SD male rats each weighing from 180 to 200 g (8 weeks of age and 6 to 8 rats in one group) were fasted for 24 hours, followed by oral administration of the above test compounds which had been suspended in 1% CMC aqueous solution. 15 minutes later, the animals were put into a stress cage which was then immersed in a water tank at 24° C. at the depth of the […] of the animals. After being immersed for 18 hours, the animals were killed under etherization to excise the stomachs. Each of the stomachs was injected with 12 ml of 1% formalin aqueous solution and then immersed in 1% formalin aqueous solution for 15 minutes. The stomach was incised along its upper curvature and measured by an anatomic microscopy for the major axis (mm) of each ulcer that had developed on the gastric mucous membrane. The total major axis (mm) was taken as the ulcer factor. The ulcer inhibition rate was obtained from the following equation. The ED50 values were obtained from the doses-ulcer inhibition rates curve. [formula] where l is the ulcer factor of a group without the test compounds administered, and m is the ulcer factor of a group having such compounds administered.

[1] = system: indomethacin induced ulcer; assay: Test Method 3: Effect on Indomethacin Induced Ulcer; conditions: Rattus norvegicus; SD male rats, oral, 15 minutes before s.c. indomethacin (30 mg/kg); stomachs removed after 5 hours
Method: The method of Okabe et al (Jap. J. Pharmacol., 29, 670 (1979)) was followed.
SD male rats each weighing from 180 to 200 g (8 weeks of age and 6 to 8 in one group) were fasted for 24 hours, followed by oral administration of the test compounds which had been suspended in 1% CMC aqueous solution, and 15 minutes afterwards, by subcutaneous administration of indomethacin (30 mg/kg of weight) which had been dissolved in 3% sodium bicarbonate aqueous solution. After lapse of 5 hours, the animals were killed under etherization to take out the stomachs. Each of the stomachs was injected with 12 ml of 1% formalin aqueous solution containing 0.1% pontamine sky blue and then immersed in 1% formalin aqueous solution for 15 minutes. The ulcer factor and ulcer inhibition rate were determined in a manner similar to Test Method 1. The ED50 values were obtained from the dosesulcer inhibition rates curve.

SMILES	ED50 (ethanol induced ulcer)	MLD, acute toxicity test (minimum lethal dose) (ddY male mice)	ED50 (stress induced ulcer)	ED50 [1]
N=C(N)NCc1ccc(C(=O)Nc2ccccc2)cc1 [Compound A, N-phenyl-4-guanidinomethylbenzamide]	35 mg/kg	> 3000 mg/kg	34 mg/kg	58 mg/kg
Cl.N=C(N)NC[C@H]1CC[C@H](C(=O)Nc2ccccc2)CC1 [Compound B, N-(phenyl)-trans-4-guanidinomethylcyclohexanecarboxamide hydrochloride]	220 mg/kg	< 1000 mg/kg	143 mg/kg	73 mg/kg
